# According to US20250186450A1, “COMBINATION THERAPY COMPRISING DGK INHIBITORS and PD-1/PD-L1 INHIBITORS” (Incyte Corporation, priority 2023, published 2025):
# Tests used:
# [1] = biological target: DGKα (Homo sapiens (Human), UniProt P23743); test: In vitro DGKα inhibition assay (ADP-Glo); type: biochemical; conditions: 0.1 nM DGKα, 50 μM ATP, 20 μM DLG
# Protocol: (§1) The DGKα and DGKζ biochemical reactions were performed using His-tagged human recombinant enzymes (Signal Chem, DGKα, #D21-10BH; DGKζ, #D30-10H)) and DLG (Dilauroyl-sn-glycerol) lipid substrate (Signal Chem, #D430-59). ADP-Glo assay was performed using ADP-Glo™ kinase Assay kit (Promega, #V9104). The reactions were carried out in assay buffer containing 40 mM Tris, pH 7.5, 0.1% CHAPS, 0.1% Prionex, 40 mM NaCl, 5 mM MgCl2, 1 mM CaCl2, and 1 mM DTT. DGKα reactions contained 0.1 nM DGKα, 50 μM ATP, and 20 μM DLG. And DGKζ reactions contained 0.4 nM DGKζ, 30 μM ATP, and 20 μM DLG.
# (§2) For compound inhibition studies, 40 nL test compound in DMSO was added to wells of white polystyrene plates in 384-well (Greiner, #784075) or 1536-well format (Greiner, #782075). Compounds were added with top concentration of 2 mM with 11 point, 3-fold dilution series. Enzyme solution (contains 2×DGK enzyme concentration in 1× assay buffer) was added to the plate in 2 μL/well volume, followed by 2 μL/well of substrate solution (contains 2× concentration of ATP and DLG substrate in 1× assay buffer). Plates were then centrifuged for 1 min at 1200 RPM and sealed or lidded. For 4 μL reaction volume, test compounds were therefore diluted 100× to final top concentration of 20 μM. After 90 minute incubation, reactions were quenched by addition of 2 μL/well Promega ADP-Glo Reagent, followed by centrifugation and lidding. After 60 min incubation, 2 μL/well Promega Kinase Detection Reagent was added, plates centrifuged, and incubated for 30 min. Plates were then read using Luminescence method on BMG PHERAstar FSX plate reader. Percent inhibition was calculated and IC50s were determined using 4-parameter fit in Genedata Screener. Labcyte Echo acoustic dispenser was used for compound addition, and Formulatrix Tempest liquid handler was used for all reagent dispenses.
# [2] = biological target: DGKζ (Homo sapiens (Human), UniProt Q13574); test: In vitro DGKζ inhibition assay (ADP-Glo); type: biochemical; conditions: 0.4 nM DGKζ, 30 μM ATP, 20 μM DLG
# Chain of DGKζ (Q13574 whole entry): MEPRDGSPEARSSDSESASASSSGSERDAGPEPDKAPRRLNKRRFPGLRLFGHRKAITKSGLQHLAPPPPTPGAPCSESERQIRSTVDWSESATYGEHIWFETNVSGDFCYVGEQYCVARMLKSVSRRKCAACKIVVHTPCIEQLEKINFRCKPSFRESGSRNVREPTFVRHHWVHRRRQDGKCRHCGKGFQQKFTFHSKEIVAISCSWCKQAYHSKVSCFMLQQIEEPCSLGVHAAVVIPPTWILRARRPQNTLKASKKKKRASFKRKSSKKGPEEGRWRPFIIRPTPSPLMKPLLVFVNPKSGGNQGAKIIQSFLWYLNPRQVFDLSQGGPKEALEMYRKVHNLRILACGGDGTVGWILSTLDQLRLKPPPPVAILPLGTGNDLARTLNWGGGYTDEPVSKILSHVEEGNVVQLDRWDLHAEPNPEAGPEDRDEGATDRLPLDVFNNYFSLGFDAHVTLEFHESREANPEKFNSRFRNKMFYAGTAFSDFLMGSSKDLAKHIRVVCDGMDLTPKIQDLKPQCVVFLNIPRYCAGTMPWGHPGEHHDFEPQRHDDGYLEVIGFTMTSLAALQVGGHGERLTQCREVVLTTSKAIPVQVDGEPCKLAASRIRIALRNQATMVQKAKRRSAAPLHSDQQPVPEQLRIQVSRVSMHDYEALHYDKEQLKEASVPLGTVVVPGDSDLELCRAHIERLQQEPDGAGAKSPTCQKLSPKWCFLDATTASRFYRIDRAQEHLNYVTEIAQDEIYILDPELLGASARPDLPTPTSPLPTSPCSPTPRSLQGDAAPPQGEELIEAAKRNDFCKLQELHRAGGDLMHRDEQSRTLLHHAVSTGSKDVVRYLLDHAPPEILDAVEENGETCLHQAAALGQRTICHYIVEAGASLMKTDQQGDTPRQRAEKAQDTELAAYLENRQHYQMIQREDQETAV
# Protocol: as §1, §2
# [3] = test system: CT26 syngeneic tumor model; test: CT26 syngeneic tumor model, DGK inhibitor plus anti-PD-1 (RMP1-14); type: in vivo, Balb/C mice; conditions: for tumor growth delay vs control vehicle group: Compound 1 alone
# Protocol: The in vivo effect of combining Compound 1 plus anti-PD-1 (RMP1-14, Bio X Cell) was assessed in the CT26 (CRL-2638, ATCC, Manassas, VA) syngeneic tumor model (see FIG. 1) in 6 to 8 weeks old Balb/C mice (Jackson laboratories). Compound 1 was suspended in 5% N,N-dimethylacetamide (DMAC)+50 mM Citrate buffer in 0.5% methyl cellulose for oral administration and RMP1-14 was suspended in saline for intraperitoneal administration. Briefly, the left flank of the mice was shaved the day prior to subcutaneous inoculation with 1×10^6 CT26 cells suspended in PBS. On day 7, tumor dimensions were measured by Vernier calipers, and volume estimated by the formula Volume=[L (long dimension)×W^2 (short dimension)]/2. Mice were randomized into 6 groups of 10 mice of approximate mean volume (˜150 mm^3). Tumors were measured 3 times per week for the duration of the study. Starting day 7, mice were dosed with (i) vehicle; (ii) 250 μg/mouse of RMP1-14; (iii) 10 mg/kg of Compound 1; (iv) 3 mg/kg of Compound 1; (v) 10 mg/kg of Compound 1 and 250 μg/mouse of RMP1-14; or (vi) 3 mg/kg of Compound 1 and 250 μg/mouse of RMP1-14. Compound 1 was administered orally once daily (QD) for 14 days, while RMP1-14 was dosed every 5 days (for a total of 3 doses).
# In a separate experiment, mice were randomized on day 7 into 10 groups of 10 mice of approximate mean volume (˜120 mm^3). Tumors were measured 3 times a week for the duration of the efficacy study (day 22). Starting day 7, mice were dosed with (i) vehicle; (ii) 250 μg/mouse of RMP1-14; (iii) 10 mg/kg of Compound 1 QD; (iv) 10 mg/kg of Compound 1 Q2D; (v) 3 mg/kg of Compound 1 QD; (vi) 3 mg/kg of Compound 1 […]; (vii) 10 mg/kg of Compound 1 QD and 250 μg/mouse of RMP1-14; (viii) 10 mg/kg of Compound 1 Q2D and 250 μg/mouse of RMP1-14; (ix) 3 mg/kg of Compound 1 QD and 250 μg/mouse of RMP1-14; or (x) 3 mg/kg of Compound 1 Q2D and 250 μg/mouse of RMP1-14. Compound 1 was administered orally either daily (QD) or every other day (Q2D) for 10 days, while RMP1-14 was dosed every 5 days (for a total of 2 doses).
# The in vivo effect of combining Compound 2 plus anti-PD-1 (RMP1-14, Bio X Cell) was assessed in the CT26 (CRL-2638, ATCC, Manassas, VA) syngeneic tumor model (see FIG. 6A-6B) in 6 to 8 weeks old Balb/C mice (Jackson laboratories). Compound 2 was suspended in 5% N,N-dimethylacetamide (DMAC)+50 mM Citrate buffer in 0.5% methyl cellulose for oral administration and RMP1-14 was suspended in saline for intraperitoneal administration. Briefly, the left flank of the mice was shaved the day prior to subcutaneous inoculation with 1×10^6 CT26 cells suspended in PBS. On day 7, tumor dimensions were measured by Vernier calipers, and volume estimated by the formula Volume=[L (long dimension)×W^2 (short dimension)]/2. Mice were randomized into 6 groups of 10 mice of approximate mean volume (˜130 mm^3). Tumors were measured 3 times per week for the duration of the study. Starting day 7, mice were dosed with (i) vehicle; (ii) 250 μg/mouse of RMP1-14 (Anti-PD-1); (iii) 1.5 mg/kg of Compound 2 QD; (iv) 1.5 mg/kg of Compound 2 QD and 250 μg/mouse of RMP1-14; (v) 1.5 mg/kg of Compound 2 Q2D; (vi) 1.5 mg/kg of Compound 2 Q2D and 250 μg/mouse of RMP1-14; (vii) 1.5 mg/kg of Compound 2 Q3D; or (viii) 1.5 mg/kg of Compound 2 Q3D and 250 μg/mouse of RMP1-14.
# Chain of DGKα (P23743 whole entry): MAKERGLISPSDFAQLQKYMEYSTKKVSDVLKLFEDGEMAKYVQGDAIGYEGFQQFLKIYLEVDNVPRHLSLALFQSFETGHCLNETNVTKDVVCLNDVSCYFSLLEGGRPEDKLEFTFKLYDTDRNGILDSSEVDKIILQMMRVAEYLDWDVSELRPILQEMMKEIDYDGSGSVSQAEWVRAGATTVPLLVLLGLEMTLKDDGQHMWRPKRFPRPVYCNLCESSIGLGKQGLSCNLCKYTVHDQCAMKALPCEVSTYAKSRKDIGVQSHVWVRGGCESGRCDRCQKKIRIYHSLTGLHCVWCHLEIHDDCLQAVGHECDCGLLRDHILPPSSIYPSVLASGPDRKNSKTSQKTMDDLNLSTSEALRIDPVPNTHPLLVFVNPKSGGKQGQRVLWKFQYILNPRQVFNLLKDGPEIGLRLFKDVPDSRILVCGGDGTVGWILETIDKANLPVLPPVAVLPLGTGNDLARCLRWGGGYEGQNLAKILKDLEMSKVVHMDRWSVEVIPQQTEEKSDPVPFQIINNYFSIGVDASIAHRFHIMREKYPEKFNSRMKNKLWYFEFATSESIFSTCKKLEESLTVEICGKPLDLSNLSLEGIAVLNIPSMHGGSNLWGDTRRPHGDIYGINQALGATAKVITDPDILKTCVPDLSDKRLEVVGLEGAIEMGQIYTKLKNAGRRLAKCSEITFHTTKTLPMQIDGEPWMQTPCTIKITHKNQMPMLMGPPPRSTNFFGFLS
structure (smiles),measurement,setting,value
"Cc1nc2c(N3C[C@@H](C)N(C(c4ccc(C(F)(F)F)cc4)C4CC(F)(F)C4)C[C@@H]3C)nc3nncn3c2n1C[C@@H]1CCCO1 (single isomer, unassigned) [Example 2]",IC50,[1],≤ 0.02 µM
same,IC50,[2],≤ 0.02 µM
same,"TGI, combined with anti-PD-1 mAb","[3]; 1.5 mg/kg Compound 2 Q2D and 250 μg/mouse RMP1-14, FIGS. 6A-6B",significant TGI
same,"TGI, combination groups vs respective single-arm control group","[3]; 1.5 mg/kg Compound 2 QD, Q2D or Q3D and 250 μg/mouse RMP1-14",statistically significant
same,TGI vs vehicle control group,"[3]; Compound 2 alone, 1.5 mg/kg QD, Q2D or Q3D, FIG. 6B",None of the single treatment arm groups dosed with 1.5 mg/kg Compound 2 provided statistically significant TGI
"C[C@@H]1CN(c2nc3nncn3c3c2nnn3C[C@H]2CCCO2)[C@@H](C)CN1C(c1ccc(F)cc1)c1ccc(F)cc1 [Example 1, 4-((2S,5R)-4-(Bis(4-fluorophenyl)methyl)-2,5-dimethylpiperazin-1-yl)-1-(((R)-tetrahydrofuran-2-yl)methyl)-1H-[1,2,3]triazolo[4,5-e][1,2,4]triazolo[4,3-a]pyrimidine]",IC50,[1],≤ 0.02 µM
same,IC50,[2],≤ 0.02 µM
same,combination effect on tumor growth delay (Bliss Independence analysis),"[3]; 10 mg/kg or 3 mg/kg Compound 1 QD for 14 days with 250 μg RMP1-14 every 5 days, vs respective controls, FIG. 1",synergistic effect in tumor growth delay
same,combination effect on tumor growth delay (Bliss Independence analysis),"[3]; 10 mg/kg or 3 mg/kg Compound 1 QD or Q2D for 10 days with 250 μg RMP1-14, vs respective controls, FIG. 2",synergistic effect in tumor growth delay
same,tumor growth delay vs control vehicle group,"[3]; 10 mg/kg orally QD for 14 days, FIG. 1",therapeutic effect in delaying tumor growth
same,tumor growth delay vs control vehicle group,"[3]; 10 and 3 mg/kg QD for 10 days, separate experiment, FIG. 2",therapeutic effect in delaying tumor growth
same,tumor volume vs RMP1-14 alone (Kruskal-Wallis Multiple Comparison Test),"[3]; all groups tested against group (ii) 250 μg/mouse RMP1-14, FIG. 2",statistical significance
